Measurements from US9579314B2 (priority 2015, dated 2017).

Key:
[1] = target: Human β2 adrenoceptor (Homo sapiens, UniProt P07550); details: read-out: B2 binding affinity
[2] = target: Human M3 receptor (Homo sapiens, UniProt P20309); details: read-out: M3 binding affinity
Chain of Human M3 receptor (P20309 whole entry): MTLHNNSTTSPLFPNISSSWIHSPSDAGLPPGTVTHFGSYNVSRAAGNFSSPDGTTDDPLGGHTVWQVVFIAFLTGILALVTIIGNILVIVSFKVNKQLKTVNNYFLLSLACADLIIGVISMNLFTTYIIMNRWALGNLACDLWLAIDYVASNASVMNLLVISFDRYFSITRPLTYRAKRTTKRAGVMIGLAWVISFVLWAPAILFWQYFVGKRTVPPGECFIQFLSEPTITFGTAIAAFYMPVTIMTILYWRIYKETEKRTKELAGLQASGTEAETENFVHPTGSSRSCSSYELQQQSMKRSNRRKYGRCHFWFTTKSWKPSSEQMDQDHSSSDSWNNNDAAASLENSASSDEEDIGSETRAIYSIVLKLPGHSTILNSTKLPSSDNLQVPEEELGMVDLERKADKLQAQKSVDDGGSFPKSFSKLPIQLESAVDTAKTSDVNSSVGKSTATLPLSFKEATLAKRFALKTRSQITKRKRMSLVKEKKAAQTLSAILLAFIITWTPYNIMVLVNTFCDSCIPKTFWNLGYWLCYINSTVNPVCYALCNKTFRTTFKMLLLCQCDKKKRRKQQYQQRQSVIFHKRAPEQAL

Chain of Human β2 adrenoceptor (P07550 whole entry): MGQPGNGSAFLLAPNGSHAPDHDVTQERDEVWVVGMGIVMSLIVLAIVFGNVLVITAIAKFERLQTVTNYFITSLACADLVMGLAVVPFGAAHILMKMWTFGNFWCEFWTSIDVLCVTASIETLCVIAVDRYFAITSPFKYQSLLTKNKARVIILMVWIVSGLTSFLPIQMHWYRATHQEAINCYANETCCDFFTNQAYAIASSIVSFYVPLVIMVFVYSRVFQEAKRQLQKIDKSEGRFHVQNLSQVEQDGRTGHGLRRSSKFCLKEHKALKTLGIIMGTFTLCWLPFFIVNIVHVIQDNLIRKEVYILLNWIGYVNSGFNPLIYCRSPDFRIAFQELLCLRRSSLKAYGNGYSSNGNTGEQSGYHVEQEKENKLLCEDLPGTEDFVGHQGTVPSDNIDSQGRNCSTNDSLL

SMILES | IC50 [1] [nM] | IC50 [2] [nM]
O=C(NCCCOc1cccc([C@](O)(C(=O)OCC2CCN(Cc3ccccc3)CC2)c2ccccc2)c1)c1ccc(CNC[C@H](O)c2ccc(O)c3[nH]c(=O)ccc23)c(C(F)(F)F)c1 [Compound 32M, (S)-(1-benzylpiperidin-4-yl)methyl (S)-2-hydroxy-2-(3-(3-(4-((((R)-2-hydroxy-2-(8-hydroxy-2-oxo-1,2-dihydroquinolin-5-yl)ethyl)amino)methyl)-3-(trifluoromethyl)benzamido)propoxy)phenyl)-2-phenylacetate] | > 3 | 0.3 to 3
COc1cc(CNC[C@H](O)c2ccc(O)c3[nH]c(=O)ccc23)ccc1C(=O)NCCCOc1cccc([C@](O)(C(=O)OCC2CCN(Cc3ccccc3)CC2)c2ccccc2)c1 [Compound 32B, (S)-(1-benzylpiperidin-4-yl)methyl 2-hydroxy-2-(3-(3-(4-((((R)-2-hydroxy-2-(8-hydroxy-2-oxo-1,2-dihydroquinolin-5-yl)ethyl)amino)methyl)-2-methoxybenzamido)propoxy)phenyl)-2-phenylacetate] | < 0.3 | < 0.3
O=C(OCC1CCN(Cc2ccccc2)CC1)[C@](O)(c1ccccc1)c1cccc(OCC2CCN(C(=O)[C@H]3CC[C@H](C(=O)N4CCC(CNC[C@H](O)c5ccc(O)c6[nH]c(=O)ccc56)CC4)CC3)CC2)c1 [Compound 157, (1-benzylpiperidin-4-yl)methyl (S)-2-hydroxy-2-(3-((1-((1R,4S)-4-(4-((((R)-2-hydroxy-2-(8-hydroxy-2-oxo-1,2-dihydroquinolin-5-yl)ethyl)amino)methyl)piperidine-1-carbonyl)cyclohexane-1-carbonyl)piperidin-4-yl)methoxy)phenyl)-2-phenylacetate] | > 3 | 0.3 to 3
O=C(COc1cccc([C@](O)(C(=O)OCC2CCN(Cc3ccccc3)CC2)c2ccccc2)c1)N[C@H]1C[C@H](NC(=O)c2ccc(CNC[C@H](O)c3ccc(O)c4[nH]c(=O)ccc34)cc2)C1 [Compound 63, (1-benzylpiperidin-4-yl)methyl (S)-2-hydroxy-2-(3-(2-(((1R,3S)-3-(4-((((R)-2-hydroxy-2-(8-hydroxy-2-oxo-1,2-dihydroquinolin-5-yl)ethyl)amino)methyl)benzamido)cyclobutyl)amino)-2-oxoethoxy)phenyl)-2-phenylacetate] | < 0.3 | < 0.3
O=C(NCC(=O)N1CCC(COc2cccc([C@](O)(C(=O)OCC3CCN(Cc4ccccc4)CC3)c3ccccc3)c2)CC1)c1ccc(CNC[C@H](O)c2ccc(O)c3[nH]c(=O)ccc23)cc1 [Compound 154, (1-benzylpiperidin-4-yl)methyl (S)-2-hydroxy-2-(3-((1-((4-((((R)-2-hydroxy-2-(8-hydroxy-2-oxo-1,2-dihydroquinolin-5-yl)ethyl)amino)methyl)benzoyl)glycyl)piperidin-4-yl)methoxy)phenyl)-2-phenylacetate] | < 0.3 | < 0.3
COc1cc(CNC[C@H](O)c2ccc(O)c3[nH]c(=O)ccc23)ccc1C(=O)N1CC(NC(=O)COc2cccc([C@](O)(C(=O)OCC3CCN(Cc4ccccc4)CC3)c3ccccc3)c2)C1 [Compound 82, (1-benzylpiperidin-4-yl)methyl (S)-2-hydroxy-2-(3-(2-((1-(4-((((R)-2-hydroxy-2-(8-hydroxy-2-oxo-1,2-dihydroquinolin-5-yl)ethyl)amino)methyl)-2-methoxybenzoyl)azetidin-3-yl)amino)-2-oxoethoxy)phenyl)-2-phenylacetate] | 0.3 to 3 | 0.3 to 3
CC(C)Oc1cc(C(=O)N[C@H]2C[C@H](NC(=O)COc3cccc([C@](O)(C(=O)OCC4CCN(Cc5ccccc5)CC4)c4ccccc4)c3)C2)ccc1CNC[C@H](O)c1ccc(O)c2[nH]c(=O)ccc12 [Compound 143, (1-benzylpiperidin-4-yl)methyl (S)-2-hydroxy-2-(3-(2-(((1R,3S)-3-(4-((((R)-2-hydroxy-2-(8-hydroxy-2-oxo-1,2-dihydroquinolin-5-yl)ethyl)amino)methyl)-3-isopropoxybenzamido)cyclobutyl)amino)-2-oxoethoxy)phenyl)-2-phenylacetate] | 0.3 to 3 | 0.3 to 3
O=C(OCC1CCN(Cc2ccccc2)CC1)C(O)(c1ccccc1)c1cccc(OCCCCCNC[C@H](O)c2ccc(O)c3[nH]c(=O)ccc23)c1 (stereo partly drawn) [Compound 1, (1-Benzylpiperidin-4-yl)methyl 2-hydroxy-2-(3-((5-(((R)-2-hydroxy-2-(8-hydroxy-2-oxo-1,2-dihydroquinolin-5-yl)ethyl)amino)pentyl)oxy)phenyl)-2-phenylacetate] | < 0.3 | 0.3 to 3
O=C(OCC1CCN(Cc2ccccc2)CC1)[C@](O)(c1ccccc1)c1cccc(OCCCCCCNCC(O)c2ccc(O)c3[nH]c(=O)ccc23)c1 (stereo in doubt) [Compound 29, (S)-(1-benzylpiperidin-4-yl)methyl 2-hydroxy-2-(3-((6-(((R)-2-hydroxy-2-(8-hydroxy-2-oxo-1,2-dihydroquinolin-5-yl)ethyl)amino)hexyl)oxy)phenyl)-2-phenylacetate] | < 0.3 | < 0.3
O=C(COc1cccc([C@](O)(C(=O)OCC2CCN(Cc3ccccc3)CC2)c2ccccc2)c1)N1CC2(C1)CN(C(=O)c1ccc(CCNC[C@H](O)c3ccc(O)c4[nH]c(=O)ccc34)cc1)C2 [Compound 93, (1-benzylpiperidin-4-yl)methyl (S)-2-hydroxy-2-(3-(2-(6-(4-(2-(((R)-2-hydroxy-2-(8-hydroxy-2-oxo-1,2-dihydroquinolin-5-yl)ethyl)amino)ethyl)benzoyl)-2,6-diazaspiro[3.3]heptan-2-yl)-2-oxoethoxy)phenyl)-2-phenylacetate] | < 0.3 | 0.3 to 3
O=C(COc1cccc([C@](O)(C(=O)OCC2CCN(Cc3ccccc3)CC2)c2ccccc2)c1)NC1CN(C(=O)c2ccc(CCNC[C@H](O)c3ccc(O)c4[nH]c(=O)ccc34)cc2)C1 [Compound 101, (1-benzylpiperidin-4-yl)methyl (S)-2-hydroxy-2-(3-(2-((1-(4-(2-(((R)-2-hydroxy-2-(8-hydroxy-2-oxo-1,2-dihydroquinolin-5-yl)ethyl)amino)ethyl)benzoyl)azetidin-3-yl)amino)-2-oxoethoxy)phenyl)-2-phenylacetate] | < 0.3 | < 0.3
O=C(COc1cccc([C@](O)(C(=O)OCC2CCN(Cc3ccccc3)CC2)c2ccccc2)c1)N[C@H]1CC[C@H](NC(=O)c2ccc(CCNC[C@H](O)c3ccc(O)c4[nH]c(=O)ccc34)cc2)CC1 [Compound 90, (1-benzylpiperidin-4-yl)methyl (S)-2-hydroxy-2-(3-(2-(((1R,4S)-4-(4-(2-(((R)-2-hydroxy-2-(8-hydroxy-2-oxo-1,2-dihydroquinolin-5-yl)ethyl)amino)ethyl)benzamido)cyclohexyl)amino)-2-oxoethoxy)phenyl)-2-phenylacetate] | 0.3 to 3 | 0.3 to 3
O=C(OCC1CCN(Cc2ccccc2)CC1)C(O)(c1cccc(OCCCCCNC[C@H](O)c2ccc(O)c3[nH]c(=O)ccc23)c1)C1CCCCC1 (stereo partly drawn) [Compound 10, (1-benzylpiperidin-4-yl)methyl 2-cyclohexyl-2-hydroxy-2-(3-((5-(((R)-2-hydroxy-2-(8-hydroxy-2-oxo-1,2-dihydroquinolin-5-yl)ethyl)amino)pentyl)oxy)phenyl)acetate] | 0.3 to 3 | 0.3 to 3
COc1cc(C(=O)NCCCOc2cccc([C@](O)(C(=O)OCC3CCN(Cc4ccccc4)CC3)c3ccccc3)c2)c(Cl)cc1CNC[C@H](O)c1ccc(O)c2[nH]c(=O)ccc12 [Compound 32J, (S)-(1-benzylpiperidin-4-yl)methyl 2-(3-(3-(2-chloro-4-((((R)-2-hydroxy-2-(8-hydroxy-2-oxo-1,2-dihydroquinolin-5-yl)ethyl)amino)methyl)-5-methoxybenzamido)propoxy)phenyl)-2-hydroxy-2-phenylacetate] | < 0.3 | 0.3 to 3
CN(CCNC(=O)c1ccc(CNC[C@H](O)c2ccc(O)c3[nH]c(=O)ccc23)cc1)C(=O)COc1cccc([C@](O)(C(=O)OCC2CCN(Cc3ccccc3)CC2)c2ccccc2)c1 [Compound 60, (1-benzylpiperidin-4-yl)methyl (S)-2-hydroxy-2-(3-(2-((2-(4-((((R)-2-hydroxy-2-(8-hydroxy-2-oxo-1,2-dihydroquinolin-5-yl)ethyl)amino)methyl)benzamido)ethyl)(methyl)amino)-2-oxoethoxy)phenyl)-2-phenylacetate] | 0.3 to 3 | 0.3 to 3
COc1cc(C(=O)NCCCOc2cccc([C@](O)(C(=O)OCC3CCN(Cc4ccccc4)CC3)c3ccccc3)c2)c(F)cc1CNC[C@H](O)c1ccc(O)c2[nH]c(=O)ccc12 [Compound 32I, (S)-(1-benzylpiperidin-4-yl)methyl 2-(3-(3-(2-fluoro-4-((((R)-2-hydroxy-2-(8-hydroxy-2-oxo-1,2-dihydroquinolin-5-yl)ethyl)amino)methyl)-5-methoxybenzamido)propoxy)phenyl)-2-hydroxy-2-phenylacetate] | < 0.3 | < 0.3
O=C(NCc1ccc(COc2ccc(C(O)(C(=O)OCC3CCN(Cc4ccccc4)CC3)c3ccccc3)cc2)cc1)c1ccc(CNC[C@H](O)c2ccc(O)c3[nH]c(=O)ccc23)cc1 (stereo partly drawn) [Compound 53, (1-benzylpiperidin-4-yl)methyl 2-hydroxy-2-(4-((4-((4-((((R)-2-hydroxy-2-(8-hydroxy-2-oxo-1,2-dihydroquinolin-5-yl)ethyl)amino)methyl)benzamido)methyl)-benzyl)oxy)phenyl)-2-phenylacetate diformate] | > 3 | > 3
O=C(COc1cccc([C@](O)(C(=O)OCC2CCN(Cc3ccccc3)CC2)c2ccccc2)c1)N1CCC(C(=O)N2CCC(CNC[C@H](O)c3ccc(O)c4[nH]c(=O)ccc34)CC2)CC1 [Compound 148, (1-benzylpiperidin-4-yl)methyl (S)-2-hydroxy-2-(3-(2-(4-(4-((((R)-2-hydroxy-2-(8-hydroxy-2-oxo-1,2-dihydroquinolin-5-yl)ethyl)amino)methyl)piperidine-1-carbonyl)piperidin-1-yl)-2-oxoethoxy)phenyl)-2-phenylacetate] | < 0.3 | 0.3 to 3
